Counter-ions that a name gives are not always drawn. Residues, ends and D or L forms follow the SMILES beside them. *: point of attachment. Cbz = O=C(OCc1ccccc1)*

For the first test, the target named is AaDOP2 (Aedes aegypti, UniProt H6D5H2). Put plainly: AaDOP2 antagonist screen of the LOPAC1280 library (HEK-CRELuc-Aadop2 cells, luminescence). It counts as cell-based.
AaDOP2, sequence (H6D5H2 1-476): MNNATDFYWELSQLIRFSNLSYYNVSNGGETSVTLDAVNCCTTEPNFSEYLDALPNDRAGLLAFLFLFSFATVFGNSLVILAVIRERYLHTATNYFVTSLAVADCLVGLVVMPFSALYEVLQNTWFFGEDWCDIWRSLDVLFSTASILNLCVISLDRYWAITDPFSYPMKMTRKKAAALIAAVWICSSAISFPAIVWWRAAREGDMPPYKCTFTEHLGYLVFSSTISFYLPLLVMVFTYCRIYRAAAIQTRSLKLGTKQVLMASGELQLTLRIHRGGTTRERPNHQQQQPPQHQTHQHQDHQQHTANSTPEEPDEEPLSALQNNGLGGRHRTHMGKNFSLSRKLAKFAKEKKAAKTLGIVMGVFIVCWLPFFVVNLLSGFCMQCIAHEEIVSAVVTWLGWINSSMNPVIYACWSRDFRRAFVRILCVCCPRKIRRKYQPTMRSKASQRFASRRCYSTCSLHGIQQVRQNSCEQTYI
Settings: not given
For `COc1ccc2[nH]cc(CCNC(C)=O)c2c1` [Compound 775, Melatonin], the “Compound effect (percent receptor signaling in presence of test compound, relative lux units relative to the SCH23390 control)” value stood at 104.
As to `Cc1cccc(C#Cc2ccccc2)n1.Cl` [Compound 778, 6-Methyl-2-(phenylethynyl)pyridine hydrochloride], the “Compound effect (percent receptor signaling in presence of test compound, relative lux units relative to the SCH23390 control)” value turned out to be 74.
Regarding `COCC(=O)O[C@]1(CCN(C)CCCc2nc3ccccc3[nH]2)CCc2cc(F)ccc2[C@@H]1C(C)C` [Compound 779, Mibefradil dihydrochloride], the “Compound effect (percent receptor signaling in presence of test compound, relative lux units relative to the SCH23390 control)” value came to 93.
The same measure, in the same setting: under `CNc1ncnc2c1ncn2[C@@H]1O[C@H](CO)[C@@H](O)[C@H]1O` [Compound 780, N6-Methyladenosine] stands 80.
On the same count and under the same terms, under `Cc1ccccc1/C=C/C1=NCCN1` [Compound 783, Metrazoline oxalate] stands 91; under `CCCn1c(=O)c2[nH]c(-c3ccc(OCC(=O)Nc4ccc(C#N)cc4)cc3)nc2n(CCC)c1=O` [Compound 785, MRS 1754], 98; under `COc1cc2c(cc1O)CC[C@@H]1[C@@H]2CC[C@]2(C)[C@@H](O)CC[C@@H]12` [Compound 786, 2-methoxyestradiol], 99.
Still for that read-out and setting: in the case of `Nc1ncnc2c1ncn2[C@@H]1O[C@H](COP(=O)(O)CP(=O)(O)OP(=O)([O-])[O-])[C@H](O)C1O.[Li+].[Li+]` (stereo partly drawn) [Compound 788, alpha,beta-Methylene adenosine 5'-triphosphate dilithium] it was 97; in that of `COc1ccc(OC)c(C(O)C(C)N)c1` (stereo not shown) [Compound 789, Methoxamine hydrochloride], 92; in that of `O=C1c2c(O)ccc(O)c2C(=O)c2c(NCCNCCO)ccc(NCCNCCO)c21` [Compound 790, Mitoxantrone], 18.
With `COc1ccc2[nH]cc(CCN)c2c1.Cl` [Compound 791, O-Methylserotonin hydrochloride], the “Compound effect (percent receptor signaling in presence of test compound, relative lux units relative to the SCH23390 control)” value amounted to 118.
In the case of `C[Se]C[C@H](N)C(=O)O.Cl` [Compound 792, Se-(methyl)selenocysteine hydrochloride], the “Compound effect (percent receptor signaling in presence of test compound, relative lux units relative to the SCH23390 control)” value is given as 129.
On the same count and under the same terms, in the case of `CC(C)[C@H](NC(=O)OCc1ccccc1)C(=O)N[C@H](C=O)Cc1ccccc1` [Compound 793, MDL 28170] (Cbz-Val-Phe-aldehyde) it was 96.
The same measure, in the same setting: in the case of `[H]/N=C(/NC)NCCC[C@H](N)C(=O)O` [Compound 795, NG-Monomethyl-L-arginine acetate] it was 94; in that of `CN1CC[C@]2(CCN3CCc4c(oc5ccccc45)[C@@H]3C2)N(C)C1=O` [Compound 796, MK-912], 73; in that of `Cc1nc(N=Nc2ccc(C(=O)O)cc2)c(COP(=O)(O)O)c(C=O)c1O` [Compound 798, MRS 2159], 91.
The same measure, in the same setting: under `NC(=O)COc1c(F)cc(SCCNS(=O)(=O)c2ccccc2)cc1F` [Compound 800, 2,6-Difluoro-4-[2-(phenylsulfonylamino)ethylthio]phenoxyacetamide] stands 89.
As to `CC#C[C@]1(O)CC[C@H]2[C@@H]3CCC4=CC(=O)CCC4=C3[C@@H](c3ccc(N(C)C)cc3)C[C@@]21C` [Compound 801, Mifepristone], the “Compound effect (percent receptor signaling in presence of test compound, relative lux units relative to the SCH23390 control)” value was 94.
With `C[C@](N)(Cc1ccc(O)cc1)C(=O)O` [Compound 802, L-alpha-Methyl-p-tyrosine], the “Compound effect (percent receptor signaling in presence of test compound, relative lux units relative to the SCH23390 control)” value was determined as 100.
Same read-out and setting: in the case of `CCOC(=O)C1=C(C)NC(=S)NC1c1cccc(O)c1` (stereo not shown) [Compound 803, Monastrol] it was 103.
The same measure, in the same setting: in the case of `Cn1ccnc1` [Compound 804, 1-Methylimidazole] it was 100; in that of `CNC1(C)C2CCC(C2)C1(C)C` (stereo not shown) [Compound 805, Mecamylamine hydrochloride], 114.
On the same count and under the same terms, in the case of `CC12CC3CC(C)(C1)CC(N)(C3)C2` [Compound 807, Memantine hydrochloride] it was 91; in that of `CN(N=O)c1ccc(O)c(O)c1` [Compound 808, Me-3,4-dephostatin], 101; in that of `CN(C)c1ccc(O)c2c1C[C@H]1C[C@H]3[C@H](N(C)C)C(O)=C(C(N)=O)C(=O)[C@@]3(O)C(O)=C1C2=O` [Compound 809, Minocycline hydrochloride], 94.
In the case of `CCCN(CCC)C(=O)C(CCC(=O)O)NC(=O)c1ccccc1` (stereo not shown) [Compound 812, Proglumide], the “Compound effect (percent receptor signaling in presence of test compound, relative lux units relative to the SCH23390 control)” value was found to be 97.
Still for that read-out and setting: in the case of `COc1ccccc1CNCCCCCCNCCCCCCCCNCCCCCCNCc1ccccc1OC` [Compound 815, Methoctramine tetrahydrochloride] it was 66.
Turning to `C[C@@]12N[C@@H](Cc3ccccc31)c1ccccc12.O=C(O)/C=C\C(=O)O` [Compound 817, (-)-MK-801 hydrogen maleate], the “Compound effect (percent receptor signaling in presence of test compound, relative lux units relative to the SCH23390 control)” value is on record as 98.
Turning to `Cc1[nH]c2ccc(O)cc2c1CCN.O=C(O)/C=C\C(=O)O` [Compound 818, 2-Methyl-5-hydroxytryptamine maleate], the “Compound effect (percent receptor signaling in presence of test compound, relative lux units relative to the SCH23390 control)” value is recorded as 102.
Still for that read-out and setting: under `CC(N)Cc1c[nH]c2ccc(O)cc12.O=C(O)/C=C\C(=O)O` (stereo not drawn) [Compound 819, alpha-Methyl-5-hydroxytryptamine maleate] stands 92.
For the molecule `Cc1ccccc1N1C(=O)c2cc(S(N)(=O)=O)c(Cl)cc2NC1C` (stereo not shown) [Compound 820, Metolazone], the “Compound effect (percent receptor signaling in presence of test compound, relative lux units relative to the SCH23390 control)” value came to 90.
Turning to `S=C=Nc1cccc(C2(N3CCCCC3)CCCCC2)c1` [Compound 821, Metaphit methanesulfonate], the “Compound effect (percent receptor signaling in presence of test compound, relative lux units relative to the SCH23390 control)” value worked out at 93.
Same read-out and setting: under `CC[C@@H](CO)NC(=O)[C@@H]1C=C2c3cccc4c3c(cn4C)C[C@H]2N(C)C1` [Compound 823, Methysergide maleate] stands 82.
For `CNC(=O)OCC[N+](C)(C)C` [Compound 824, Methylcarbamylcholine chloride], the “Compound effect (percent receptor signaling in presence of test compound, relative lux units relative to the SCH23390 control)” value is recorded as 103.
Still for that read-out and setting: in the case of `CSc1ccc2c(c1)C(N1CCN(C)CC1)Cc1ccccc1S2` (stereo not shown) [Compound 825, Methiothepin mesylate] it was 1; in that of `CN1C[C@@H](NS(=O)(=O)N(C)C)C[C@@H]2c3cccc4c3c(cn4C)C[C@H]21` [Compound 827, Mesulergine hydrochloride], 88.
On the same count and under the same terms, in the case of `Cl.N=c1c[n+](N2CCOCC2)[n-]o1` [Compound 830, 3-Morpholinosydnonimine hydrochloride] it was 90; in that of `COc1ccc2c(c1)[C@@]13CCCC[C@H]1[C@@H](C2)NCC3.Cl` [Compound 831, 3-Methoxy-morphanin hydrochloride], 94.
For the molecule `O=C(O)/C(=C/c1c(C(=O)O)[nH]c2cc(Cl)cc(Cl)c12)c1ccccc1` [Compound 833, MDL 105,519], the “Compound effect (percent receptor signaling in presence of test compound, relative lux units relative to the SCH23390 control)” value was 83.
For the molecule `Cc1ccccc1CNc1ncnc2c1ncn2[C@@H]1O[C@H](CO)[C@@H](O)[C@H]1O` [Compound 834, Metrifudil], the “Compound effect (percent receptor signaling in presence of test compound, relative lux units relative to the SCH23390 control)” value was found to be 96.

The test is the same for the next values; noted with them: 10 µM compound, 300 nM dopamine, 2 hr; hit = compound effect <20.
In the case of `C[C@](N)(CCP(=O)(O)O)C(=O)O.Cl` [Compound 781, (S)-MAP4 hydrochloride], the “Compound effect (percent receptor signaling in presence of test compound, relative lux units relative to the SCH23390 control)” value is on record as 100%.
Still for that read-out and setting: in the case of `Cl.NCCS` [Compound 787, Cysteamine hydrochloride] it was 94%; in that of `COc1ccc(NC(=O)c2ccc(-c3ccc(-c4noc(C)n4)cc3C)cc2)cc1N1CCN(C)CC1.Cl` [Compound 799, GR 127935 hydrochloride], 90%; in that of `CNCCNS(=O)(=O)c1cccc2cnccc12.Cl.Cl` [Compound 811, H-8 dihydrochloride], 43%.
As for `C[C@](N)(Cc1ccc(O)c(O)c1)C(=O)O` [Compound 822, L-alpha-Methyl DOPA], the “Compound effect (percent receptor signaling in presence of test compound, relative lux units relative to the SCH23390 control)” value is given as 98%.
On the same count and under the same terms, under `CC(C)N(CCC(=O)c1ccc2ccccc2c1)Cc1ccccc1.Cl` [Compound 829, ZM 39923 hydrochloride] stands 83%; under `COc1ccccc1N1CCN(CCN(C(=O)c2ccc(I)cc2)c2ccccn2)CC1.Cl` [Compound 832, p-MPPI hydrochloride], 73%.

Still in this test, the particulars now being: read-out: % of the SCH23390 effect (percent inhibition of receptor response relative to the SCH23390 control).
The inhibition is how much of the control response was suppressed. With `O=C1c2c(O)ccc(O)c2C(=O)c2c(NCCNCCO)ccc(NCCNCCO)c21` [Compound 790, Mitoxantrone], the inhibition at 10 µM worked out at 83%.
For `CSc1ccc2c(c1)C(N1CCN(C)CC1)Cc1ccccc1S2` (stereo not shown) [Compound 825, Methiothepin mesylate], the inhibition at 10 µM worked out at 99%.
